Literature values, collected in US20240316118A1, “ANTIVIRAL NASAL SPRAY FLAVONOIDS?BEE PROPOLIS” (priority 2022, published 2024).
Values after ≈ are worked out from the molar mass of the structure shown. Like-named read-outs stand apart in the source and are kept apart here.

Legend:
[1] = tested on: HCV replicase; conditions: Ref. [19]
[2] = target: NS3 protease (Hepatitis C virus genotype 1a, UniProt P26664); conditions: for Molecular Mechanisms: HCV replication: NS3 protease
[3] = tested on: Rotavirus virions; conditions: Rhesus Rotavirus, Ref. [20]
[4] = tested on: SARS-CoV; conditions: Vero E6 cells; read-out: half-effective concentration (EC50), SARS-CoV infection
[5] = target: NS5B polymerase (Hepatitis C virus genotype 1a, UniProt P26664); conditions: for Molecular Mechanisms: HCV replication: NS5B polymerase, Refs. [33], [40]
Chain of NS5B polymerase (P26664 2421-3011): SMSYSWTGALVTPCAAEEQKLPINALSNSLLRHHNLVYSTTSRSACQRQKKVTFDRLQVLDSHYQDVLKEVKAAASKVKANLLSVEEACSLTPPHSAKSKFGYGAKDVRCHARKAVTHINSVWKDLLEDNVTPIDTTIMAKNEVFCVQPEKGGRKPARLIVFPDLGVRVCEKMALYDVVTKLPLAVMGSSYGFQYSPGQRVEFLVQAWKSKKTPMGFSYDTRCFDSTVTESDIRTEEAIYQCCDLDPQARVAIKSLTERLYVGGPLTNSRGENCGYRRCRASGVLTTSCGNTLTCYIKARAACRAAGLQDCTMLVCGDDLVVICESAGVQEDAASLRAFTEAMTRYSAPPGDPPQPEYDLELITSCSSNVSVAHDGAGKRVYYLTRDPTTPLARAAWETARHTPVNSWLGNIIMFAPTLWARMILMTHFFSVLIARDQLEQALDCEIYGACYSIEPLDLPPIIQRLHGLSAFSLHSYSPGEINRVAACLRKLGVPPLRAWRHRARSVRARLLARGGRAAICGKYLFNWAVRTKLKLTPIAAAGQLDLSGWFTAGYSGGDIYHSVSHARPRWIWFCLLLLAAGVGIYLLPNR

[6] = tested on: Vero E6 cells
[7] = tested on: cytomegalovirus; conditions: inoculated HeLa cells; read-out: half inhibitory concentration (IC50), replication of cytomegalovirus
[8] = tested on: Dengue virus type 2 (DENV-2); conditions: Vero cells
[9] = tested on: human coronavirus OC43; conditions: at a concentration of 60 μg/mL
[10] = tested on: bovine coronavirus NCDCV; conditions: at a concentration of 60 μg/mL
[11] = tested on: NS5A, HSP70, HCV virions; conditions: Ref. [41]
[12] = target: Envelope protein, 2 (Hepatitis C virus genotype 1a, UniProt P26664); conditions: HCV Envelope protein 2, Ref. [41]
Chain of Envelope protein, 2 (P26664 384-746): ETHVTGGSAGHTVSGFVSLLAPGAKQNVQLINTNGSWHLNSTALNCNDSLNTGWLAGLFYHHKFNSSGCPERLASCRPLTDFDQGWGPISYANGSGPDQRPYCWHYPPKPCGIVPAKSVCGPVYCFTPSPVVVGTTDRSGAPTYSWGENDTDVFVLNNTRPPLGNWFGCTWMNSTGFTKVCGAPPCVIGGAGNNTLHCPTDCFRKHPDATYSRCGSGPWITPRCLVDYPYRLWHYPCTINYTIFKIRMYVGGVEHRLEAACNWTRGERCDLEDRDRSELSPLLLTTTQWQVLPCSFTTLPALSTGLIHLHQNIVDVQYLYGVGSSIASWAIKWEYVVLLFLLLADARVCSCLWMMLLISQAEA

[13] = tested on: PEDV; conditions: Vero cells
[14] = tested on: Vero cells; conditions: PEDV study
[15] = target: NS1 (Dengue virus type 2, UniProt P29990); conditions: Ref. [23] (molecular docking)
Chain of NS1 (P29990 776-1127 limits assumed): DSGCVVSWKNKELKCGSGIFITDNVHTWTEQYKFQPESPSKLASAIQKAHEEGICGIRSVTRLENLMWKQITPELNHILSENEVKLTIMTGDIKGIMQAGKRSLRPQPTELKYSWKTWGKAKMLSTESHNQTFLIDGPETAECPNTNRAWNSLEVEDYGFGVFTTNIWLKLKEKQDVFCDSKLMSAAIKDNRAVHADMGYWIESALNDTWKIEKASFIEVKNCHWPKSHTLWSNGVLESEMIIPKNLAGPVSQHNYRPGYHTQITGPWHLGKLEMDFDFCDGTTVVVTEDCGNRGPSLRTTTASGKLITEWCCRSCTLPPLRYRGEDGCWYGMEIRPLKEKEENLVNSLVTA

[16] = tested on: Phosphoprotein P; conditions: Ref. [32]; for Molecular Mechanisms: viral replication: RSV
[17] = target: HIV protease (Human immunodeficiency virus type 1 group M subtype B, UniProt P04585); conditions: Ref. [27] (computational)
[18] = tested on: DENV-2 virions; conditions: DENV-2, Ref. [40]
[19] = tested on: Influenza virions; conditions: Influenza A/WS/33, Ref. [37]
[20] = tested on: NOX4; conditions: NOX4, Ref. [24]
[21] = target: Reverse transcriptase (Human immunodeficiency virus type 1 group M subtype B, UniProt P04585); conditions: Refs. [43], [31]
[22] = target: NTCP receptor (Homo sapiens, UniProt Q14973)
Chain of NTCP receptor (Q14973 whole entry): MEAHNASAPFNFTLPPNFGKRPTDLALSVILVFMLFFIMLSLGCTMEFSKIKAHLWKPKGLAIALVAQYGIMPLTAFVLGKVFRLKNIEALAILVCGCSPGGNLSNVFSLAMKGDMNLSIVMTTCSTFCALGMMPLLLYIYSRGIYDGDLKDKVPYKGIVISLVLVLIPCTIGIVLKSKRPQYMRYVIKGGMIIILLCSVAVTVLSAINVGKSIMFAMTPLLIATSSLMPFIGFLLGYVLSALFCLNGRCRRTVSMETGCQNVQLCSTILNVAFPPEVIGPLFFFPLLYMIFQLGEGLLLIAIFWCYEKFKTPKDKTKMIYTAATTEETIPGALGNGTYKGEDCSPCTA

Chain of NS3 protease (P26664 1027-1657): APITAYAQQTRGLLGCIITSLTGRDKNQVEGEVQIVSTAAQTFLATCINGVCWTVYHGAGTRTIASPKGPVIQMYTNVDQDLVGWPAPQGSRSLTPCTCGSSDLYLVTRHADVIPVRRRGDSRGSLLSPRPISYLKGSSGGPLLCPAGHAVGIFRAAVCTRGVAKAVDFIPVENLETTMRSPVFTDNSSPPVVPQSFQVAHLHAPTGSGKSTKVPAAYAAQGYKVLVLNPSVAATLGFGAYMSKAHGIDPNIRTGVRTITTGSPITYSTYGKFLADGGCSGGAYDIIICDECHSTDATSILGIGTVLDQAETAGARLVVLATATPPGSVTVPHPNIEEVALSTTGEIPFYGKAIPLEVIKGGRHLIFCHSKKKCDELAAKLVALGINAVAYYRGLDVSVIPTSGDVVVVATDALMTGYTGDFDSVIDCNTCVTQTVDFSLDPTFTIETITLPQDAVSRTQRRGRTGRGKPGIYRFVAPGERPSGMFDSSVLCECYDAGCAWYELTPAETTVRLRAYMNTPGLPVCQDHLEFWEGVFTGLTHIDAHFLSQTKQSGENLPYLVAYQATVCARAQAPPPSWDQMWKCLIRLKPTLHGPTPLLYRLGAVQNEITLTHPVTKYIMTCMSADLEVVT
Chain of NS3 protease (P26664 1658-1711): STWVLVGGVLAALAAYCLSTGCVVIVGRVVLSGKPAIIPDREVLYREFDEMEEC

O=c1cc(-c2ccc(O)cc2)oc2cc(O)cc(O)c12 [Apigenin]
Molecular Mechanisms: HCV replication [1]: Inhibition HCV
Molecular Mechanisms: HCV replication [2]: Inhibition of HCV

O=c1cc(-c2ccc(O)cc2)oc2cc(O[C@@H]3O[C@H](CO)[C@@H](O)[C@H](O)[C@H]3O)cc(O)c12 [Apigenin-7-O-glucoside]
Molecular Mechanisms: viral replication [3]: Inhibition viral

O=c1cc(-c2ccc(O)c(O)c2)oc2cc(O)cc(O)c12 [Luteolin]
EC50 [4]: 10.6 µM
Molecular Mechanisms: HCV replication [1]: Inhibition HCV
Molecular Mechanisms: HCV replication [5]: Inhibition of HCV
CC50 [6]: 155 µM

O=c1c(O)c(-c2ccc(O)c(O)c2)oc2cc(O)cc(O)c12 [Quercetin, 2-(3,4-dihydroxyphenyl)-3,5,7-trihydroxy-4H-1 benzopyran-4-one]
IC50 [7]: 3.2 ± 0.8 µM
DENV-2 ribonucleic acid (RNA) reduction [8]: 67%
IC50, DENV-2 replication [8]: 35.7 µg/mL (≈ 118 µM)
reduced infectivity of human coronavirus OC43 [9]: 50%
reduced infectivity of bovine coronavirus NCDCV [10]: 50%
Molecular Mechanisms: virion production ([2]; HCV NS3 protease): Inhibition of virion production
Molecular Mechanisms: HCV replication [2]: HCV NS3 protease Inhibition of HCV replication,
Molecular Mechanisms: viral translation [11]: Inhibition Of viral
Molecular Mechanisms: virion assembly [11]: Inhibition of virion
Molecular Mechanisms: HCV replication [5]: Inhibition of HCV
Molecular Mechanisms: virion assembly [12]: Inhibition of virion assembly,
CC50 ([6]; read-out: cytotoxicity CC50, Vero E6 cells): 3320 µM

C[C@@H]1O[C@@H](Oc2cc(O)c3c(=O)c(O)c(-c4ccc(O)c(O)c4)oc3c2)[C@H](O)[C@H](O)[C@H]1O [quercetin 7-O-rhamnoside]
IC50, PEDV replication [13]: 0.014 µg/mL (≈ 0.0312 µM)
50% cytotoxicity concentration (CC50) [14]: 100 µg/mL

CC(C)=CC[C@@]12Oc3cc(O)c([C@H]4C=C(C)C[C@H](c5ccc(O)cc5O)[C@H]4C(=O)c4ccc(O)cc4O)c(O)c3C(=O)[C@]1(O)Oc1cc(O)ccc12 [sanggenon O]
Molecular Mechanisms: NS1 glycosylation [15]: Inhibition of NS1 glycosylation

COc1ccc(-c2cc(=O)c3c(OC)c(OC)c(OC)c(OC)c3o2)cc1 [Tangeretin]
Molecular Mechanisms: viral replication [16]: Inhibition of viral replication,
Molecular Mechanisms: RSV entry into cells [16]: Inhibition of RSV entry into cells

O=c1c(O)c(-c2ccc(O)cc2)oc2cc(O[C@@H]3O[C@H](CO)[C@@H](O)[C@H](O)[C@H]3O)cc(O)c12 [Kaempferol-7-O-glucoside]
Molecular Mechanisms: virion production [17]: Inhibition virion production

O=c1c(O)c(-c2ccc(O)c(O)c2)oc2cc(O)c(O)c(O)c12 [Quercetagetin]
Molecular Mechanisms: RNA binding to NS5B ([5]; HCV, Ref. [39]): Inhibition of RNA binding to NS5B

COc1ccc(-c2cc(=O)c3c(OC)c(OC)c(OC)c(OC)c3o2)cc1OC [Nobiletin]
Molecular Mechanisms: viral replication [16]: Inhibition of viral replication,
Molecular Mechanisms: RSV entry into cells [16]: Inhibition of RSV entry into cells

O=C(O)[C@H]1O[C@@H](Oc2cc3oc(-c4ccccc4)cc(=O)c3c(O)c2O)[C@H](O)[C@@H](O)[C@@H]1O [Baicalin]
Molecular Mechanisms: viral replication [18]: Inhibition of viral replication,
Molecular Mechanisms: viricidal activity [18]: Viricidal activity

C[C@@H]1O[C@@H](Oc2c(-c3ccc(O)c(O)c3)oc3cc(O)cc(O)c3c2=O)[C@H](O)[C@H](O)[C@H]1O [Quercetin-3-rhamnoside]
Molecular Mechanisms: virus infection [19]: Inhibition of virus infection

CC1O[C@@H](OC[C@H]2OC(Oc3cc4c(O)cc(O)cc4[o+]c3-c3cc(O)c(O)c(O)c3)[C@H](O)C(O)C2O)C(O)C(O)[C@H]1O (stereo partly drawn) [Delphinidin-3-rutinoside]
Molecular Mechanisms: HSV-1 replication [20]: Inhibition of HSV-1

epigallocatechin-3-gallate [EGCG]
Molecular Mechanisms: HIV replication [21]: Inhibition of HIV
Molecular Mechanisms: HBV entry into cells [22]: Inhibition of HBV entryinto
Molecular Mechanisms: NS1 glycosylation [15]: Inhibition of NS1 glycosylation
Molecular Mechanisms: virion production [17]: Inhibition virion production

O=C1c2c(O)cc(O)cc2OC(c2ccc(O)cc2)C1C1C(=O)c2c(O)cc(O)cc2OC1c1ccc(O)cc1 (stereo not drawn) [Chamaejasmin]
Molecular Mechanisms: NS1 glycosylation [15]: Inhibition of NS1 glycosylation

Catechin
Molecular Mechanisms: viral translation [11]: Inhibition Of viral
Molecular Mechanisms: virion assembly [11]: Inhibition of virion

O=C1C[C@@H](c2ccc(O)cc2)Oc2cc(O)cc(O)c21 [Naringenin]
Molecular Mechanisms: viral translation [11]: Inhibition Of viral
Molecular Mechanisms: virion assembly [11]: Inhibition of virion
Molecular Mechanisms: virion assembly [12]: Inhibition of virion assembly,
